Experimental data: US8148373B2, “Compounds” (AstraZeneca AB, priority 2008, dated 2012)
Where a name gives a salt, the structure may show the parent alone.

Columns and labels:
[1] = biological target: T1, human muscarinic acetylcholine M3 receptor (M3-ACh) (Homo sapiens, UniProt P20309); experiment: Muscarinic 3 Receptor Binding Assay ([3H]NMS competition, SPA); settings: [3H]NMS 0.1 nM, CHO-K1 cell membranes, 16 hours at room temperature; read-out: M3 pIC50 (converted)
T1 construct: expressed in transfected cells; host or cells: CHO-K1 (Chinese Hamster Ovary) cell membranes
How it was run: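 Competition SPA binding of 0.1 nM [3H]NMS (quarter Kd) to membranes from CHO-K1 cells expressing human M3, in 20 mM HEPES pH 7.4, 5 mM MgCl2, 1% DMSO. Incubated 16 h at room temperature; non-specific binding with 1 µM atropine. pIC50 from 50% reduction of specific binding.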

[2] = biological target: T2, Adrenergic β2 (H292 cells) (Homo sapiens, UniProt P07550); experiment: Assay for Adrenergic β2 Mediated cAMP Production (concentration response, AlphaScreen cAMP detection); assay type: cell-based; settings: for EC50: cAMP production, 60 minutes at room temperature, 300 μM rolipram, read-out: β2 pEC50 (converted); for β2 Intrinsic activity: fraction relative to the maximum activity determined for formoterol
T2 construct: endogenous in cells; host or cells: H292 cells
How it was run: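 Intrinsic activity is relative to the per-experiment formoterol maximum, with pEC50 from a four-parameter logistic fit of cAMP levels quantified by AlphaScreen against standards. Cells (H292) got 300 μM rolipram for 10 min, then compound for 60 min at room temperature, 1% DMSO final.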

T2 sequence (P07550 whole entry): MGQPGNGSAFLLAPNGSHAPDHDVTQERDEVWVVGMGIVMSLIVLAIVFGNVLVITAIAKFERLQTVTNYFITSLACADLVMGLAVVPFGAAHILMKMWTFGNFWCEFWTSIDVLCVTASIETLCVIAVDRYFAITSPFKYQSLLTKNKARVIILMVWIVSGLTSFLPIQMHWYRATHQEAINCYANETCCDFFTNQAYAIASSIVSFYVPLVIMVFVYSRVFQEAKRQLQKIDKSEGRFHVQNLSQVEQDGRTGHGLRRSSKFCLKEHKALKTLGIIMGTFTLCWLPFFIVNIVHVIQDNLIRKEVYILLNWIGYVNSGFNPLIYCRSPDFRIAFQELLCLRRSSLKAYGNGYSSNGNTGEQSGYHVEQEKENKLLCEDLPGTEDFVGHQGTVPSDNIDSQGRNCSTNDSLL
T1 sequence (P20309 whole entry): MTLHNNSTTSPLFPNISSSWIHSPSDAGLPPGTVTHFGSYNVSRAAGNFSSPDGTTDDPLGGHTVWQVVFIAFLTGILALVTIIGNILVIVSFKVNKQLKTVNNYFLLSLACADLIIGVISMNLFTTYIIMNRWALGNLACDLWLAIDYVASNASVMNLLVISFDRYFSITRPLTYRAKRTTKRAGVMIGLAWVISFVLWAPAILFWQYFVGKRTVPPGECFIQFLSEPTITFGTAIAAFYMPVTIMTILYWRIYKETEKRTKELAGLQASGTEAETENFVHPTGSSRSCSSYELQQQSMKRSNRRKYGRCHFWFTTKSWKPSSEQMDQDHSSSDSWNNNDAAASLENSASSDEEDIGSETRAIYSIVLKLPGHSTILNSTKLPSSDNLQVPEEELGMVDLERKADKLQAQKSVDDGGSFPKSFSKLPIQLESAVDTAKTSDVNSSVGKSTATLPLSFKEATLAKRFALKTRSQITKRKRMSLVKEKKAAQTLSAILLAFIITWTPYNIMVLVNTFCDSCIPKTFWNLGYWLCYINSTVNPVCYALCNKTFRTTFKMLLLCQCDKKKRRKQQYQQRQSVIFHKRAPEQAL

CC(C)c1cccc(C(=O)N2CCOC3(CCN(Cc4cccc(CCNC[C@H](O)c5ccc(O)c6[nH]c(=O)sc56)c4F)CC3)C2)n1 [Example 85, (R)-7-(2-(2-Fluoro-3-((4-(6-isopropylpicolinoyl)-1-oxa-4,9-diazaspiro[5.5]undecan-9-yl)methyl)phenethylamino)-1-hydroxyethyl)-4-hydroxybenzo[d]thiazol-2(3H)-one ditrifluoroacetate]
IC50 [1]: 50.1 nM
EC50 [2]: 7.94 nM
β2 Intrinsic activity [2]: 0.8

CCc1cc(C(=O)N2CCOC3(CCN(Cc4cccc(CCNC[C@H](O)c5ccc(O)c6[nH]c(=O)sc56)c4)CC3)C2)cs1 [Example 86, (R)-7-(2-(3-((4-(5-Ethylthiophene-3-carbonyl)-1-oxa-4,9-diazaspiro[5.5]undecan-9-yl)methyl)phenethylamino)-1-hydroxyethyl)-4-hydroxybenzo[d]thiazol-2(3H)-one ditrifluoroacetate]
IC50 [1]: 0.158 nM
EC50 [2]: 2.51 nM
β2 Intrinsic activity [2]: 0.8

CCCc1nc(C(=O)N2CCOC3(CCN(Cc4cccc(CCNC[C@H](O)c5ccc(O)c6[nH]c(=O)sc56)c4)CC3)C2)cs1 [Example 87, (R)-4-Hydroxy-7-(1-hydroxy-2-(3-((4-(2-propylthiazole-4-carbonyl)-1-oxa-4,9-diazaspiro[5.5]undecan-9-yl)methyl)phenethylamino)ethyl)benzo[d]thiazol-2(3H)-one ditrifluoroacetate]
IC50 [1]: 0.501 nM
EC50 [2]: 3.16 nM
β2 Intrinsic activity [2]: 0.9

CC(C)c1nc(C(=O)N2CCOC3(CCN(Cc4cccc(CCCNC[C@H](O)c5ccc(O)c6[nH]c(=O)sc56)c4F)CC3)C2)cs1 [Example 88, (R)-7-(2-(3-(2-Fluoro-3-((4-(2-isopropylthiazole-4-carbonyl)-1-oxa-4,9-diazaspiro[5.5]undecan-9-yl)methyl)phenyl)propylamino)-1-hydroxyethyl)-4-hydroxybenzo[d]thiazol-2(3H)-one ditrifluoroacetate]
IC50 [1]: 2 nM
EC50 [2]: 12.6 nM
β2 Intrinsic activity [2]: 1

Cc1nc(C(=O)N2CCOC3(CCN(Cc4cccc(CCNC[C@H](O)c5ccc(O)c6[nH]c(=O)sc56)c4)CC3)CC2)cs1 [Example 89, (R)-4-Hydroxy-7-(1-hydroxy-2-(3-((10-(2-methylthiazole-4-carbonyl)-7-oxa-3,10-diazaspiro[5.6]dodecan-3-yl)methyl)phenethylamino)ethyl)benzo[d]thiazol-2(3H)-one ditrifluoroacetate]
IC50 [1]: 31.6 nM
EC50 [2]: 1.58 nM
β2 Intrinsic activity [2]: 1

CC(C)c1nc(C(=O)N2CCOC3(CCN(Cc4cccc(C(C)(C)CNC[C@H](O)c5ccc(O)c6[nH]c(=O)sc56)c4F)CC3)C2)cs1 [Example 90, (R)-7-(2-(2-(2-Fluoro-3-((4-(2-isopropylthiazole-4-carbonyl)-1-oxa-4,9-diazaspiro[5.5]undecan-9-yl)methyl)phenyl)-2-methylpropylamino)-1-hydroxyethyl)-4-hydroxybenzo[d]thiazol-2(3H)-one ditrifluoroacetate]
IC50 [1]: 79.4 nM
EC50 [2]: 200 nM
β2 Intrinsic activity [2]: 0.9

CCc1cc(C(=O)N2CCOC3(CCN(Cc4cccc(CCNC[C@H](O)c5ccc(O)c6[nH]c(=O)sc56)c4F)CC3)C2)cs1 [Example 91, (R)-7-(2-(3-((4-(5-Ethylthiophene-3-carbonyl)-1-oxa-4,9-diazaspiro[5.5]undecan-9-yl)methyl)-2-fluorophenethylamino)-1-hydroxyethyl)-4-hydroxybenzo[d]thiazol-2(3H)-one ditrifluoroacetate]
IC50 [1]: 2 nM
EC50 [2]: 1.26 nM
β2 Intrinsic activity [2]: 0.7

CC(C)c1nc(C(=O)N2CCOC3(CCN(Cc4cccc(C(C)(C)CNC[C@H](O)c5ccc(O)c6[nH]c(=O)ccc56)c4F)CC3)C2)cs1 [Example 92, (R)-5-(2-(2-(2-Fluoro-3-((4-(2-isopropylthiazole-4-carbonyl)-1-oxa-4,9-diazaspiro[5.5]undecan-9-yl)methyl)phenyl)-2-methylpropylamino)-1-hydroxyethyl)-8-hydroxyquinolin-2(1H)-one ditrifluoroacetate]
IC50 [1]: 126 nM
EC50 [2]: 794 nM
β2 Intrinsic activity [2]: 0.9

CCc1cc(C(=O)N2CCOC3(CCN(Cc4cc(F)cc(CCNC[C@H](O)c5ccc(O)c6[nH]c(=O)sc56)c4)CC3)C2)cs1 [Example 93, (R)-7-(2-(3-((4-(5-Ethylthiophene-3-carbonyl)-1-oxa-4,9-diazaspiro[5.5]undecan-9-yl)methyl)-5-fluorophenethylamino)-1-hydroxyethyl)-4-hydroxybenzo[d]thiazol-2(3H)-one ditrifluoroacetate]
IC50 [1]: 2.51 nM
EC50 [2]: 2.51 nM
β2 Intrinsic activity [2]: 0.8

Cc1nc(C(=O)N2CCOC3(CCN(CCOc4cccc(CNC[C@H](O)c5ccc(O)c6[nH]c(=O)ccc56)c4)CC3)C2)cs1 [Example 94, (R)-8-Hydroxy-5-(1-hydroxy-2-(3-(2-(4-(2-methylthiazole-4-carbonyl)-1-oxa-4,9-diazaspiro[5.5]undecan-9-yl)ethoxy)benzylamino)ethyl)quinolin-2(1H)-one ditrifluoroacetate]
IC50 [1]: 12.6 nM
EC50 [2]: 1260 nM
β2 Intrinsic activity [2]: 0.7

Cc1nc(C(=O)N2CCOC3(CCN(CCCOc4cccc(CNC[C@H](O)c5ccc(O)c6[nH]c(=O)ccc56)c4)CC3)C2)cs1 [Example 95, (R)-8-Hydroxy-5-(1-hydroxy-2-(3-(3-(4-(2-methylthiazole-4-carbonyl)-1-oxa-4,9-diazaspiro[5.5]undecan-9-yl)propoxy)benzylamino)ethyl)quinolin-2(1H)-one ditrifluoroacetate]
IC50 [1]: 1.58 nM
EC50 [2]: > 3200 nM
β2 Intrinsic activity [2]: NV* (inactive up to a max concentration of 3.2 μM of test compound)

Cc1nc(C(=O)N2CCOC3(CCN(Cc4cccc(CNC[C@H](O)c5ccc(O)c6[nH]c(=O)ccc56)c4)CC3)C2)cs1 [Example 96, (R)-8-Hydroxy-5-(1-hydroxy-2-(3-((4-(2-methylthiazole-4-carbonyl)-1-oxa-4,9-diazaspiro[5.5]undecan-9-yl)methyl)benzylamino)ethyl)quinolin-2(1H)-one ditrifluoroacetate]
IC50 [1]: 0.251 nM
EC50 [2]: > 3200 nM
β2 Intrinsic activity [2]: NV* (inactive up to a max concentration of 3.2 μM of test compound)

Cc1nc(C(=O)N2CCOC3(CCN(CCOc4cc(C)c(CNC[C@H](O)c5ccc(O)c6[nH]c(=O)ccc56)cc4C)CC3)C2)cs1 [Example 97, (R)-5-(2-(2,5-Dimethyl-4-(2-(4-(2-methylthiazole-4-carbonyl)-1-oxa-4,9-diazaspiro[5.5]undecan-9-yl)ethoxy)benzylamino)-1-hydroxyethyl)-8-hydroxyquinolin-2(1H)-one ditrifluoroacetate]
IC50 [1]: 6.31 nM
EC50 [2]: > 3160 nM
β2 Intrinsic activity [2]: 1.5

Cc1nc(C(=O)N2CCOC3(CCN(CCc4ccc(CNC[C@H](O)c5ccc(O)c6[nH]c(=O)ccc56)s4)CC3)C2)cs1 [Example 98, (R)-8-Hydroxy-5-(1-hydroxy-2-((5-(2-(4-(2-methylthiazole-4-carbonyl)-1-oxa-4,9-diazaspiro[5.5]undecan-9-yl)ethyl)thiophen-2-yl)methylamino)ethyl)quinolin-2(1H)-one ditrifluoroacetate]
IC50 [1]: 1.26 nM
EC50 [2]: 2000 nM
β2 Intrinsic activity [2]: 0.4

CCc1cc(C(=O)N2CCOC3(CCN(Cc4ccc(F)c(CCNC[C@H](O)c5ccc(O)c6[nH]c(=O)sc56)c4)CC3)C2)cs1 [Example 99, (R)-7-(2-(5-((4-(5-Ethylthiophene-3-carbonyl)-1-oxa-4,9-diazaspiro[5.5]undecan-9-yl)methyl)-2-fluorophenethylamino)-1-hydroxyethyl)-4-hydroxybenzo[d]thiazol-2(3H)-one ditrifluoroacetate]
IC50 [1]: 1.58 nM
EC50 [2]: 7.94 nM
β2 Intrinsic activity [2]: 0.8

CCc1cc(C(=O)N2CCOC3(CCN(Cc4cc(CCNC[C@H](O)c5ccc(O)c6[nH]c(=O)sc56)ccc4F)CC3)C2)cs1 [Example 100, (R)-7-(2-(3-((4-(5-Ethylthiophene-3-carbonyl)-1-oxa-4,9-diazaspiro[5.5]undecan-9-yl)methyl)-4-fluorophenethylamino)-1-hydroxyethyl)-4-hydroxybenzo[d]thiazol-2(3H)-one ditrifluoroacetate]
IC50 [1]: 1.58 nM
EC50 [2]: 5.01 nM
β2 Intrinsic activity [2]: 0.9

CC(C)c1nc(C(=O)N2CCOC3(CCN(CCCCCCSCCNC[C@H](O)c4ccc(O)c5[nH]c(=O)sc45)CC3)C2)cs1 [Example 101, (R)-4-Hydroxy-7-(1-hydroxy-2-(2-(6-(4-(2-isopropylthiazole-4-carbonyl)-1-oxa-4,9-diazaspiro[5.5]undecan-9-yl)hexylthio)ethylamino)ethyl)benzo[d]thiazol-2(3H)-one formate]
IC50 [1]: 0.316 nM
EC50 [2]: 158 nM
β2 Intrinsic activity [2]: 1

CC(C)c1nc(C(=O)N2CCOC3(CCN(CCCCCC(C)(C)CNC[C@H](O)c4ccc(O)c5[nH]c(=O)sc45)CC3)C2)cs1 [Example 102, (R)-4-Hydroxy-7-(1-hydroxy-2-(7-(4-(2-isopropylthiazole-4-carbonyl)-1-oxa-4,9-diazaspiro[5.5]undecan-9-yl)-2,2-dimethylheptylamino)ethyl)benzo[d]thiazol-2(3H)-one formate]
IC50 [1]: 1 nM
EC50 [2]: 200 nM
β2 Intrinsic activity [2]: 0.9
